Results published in publication PMC3201759 (Journal of proteome research, 2011).
Read-outs that look alike come from different tables or passages of the source.

Target: T1, mouse Oat1 (mOat1; Oat1/Slc22a6) (Mus musculus, UniProt Q8VC69)
T1 sequence (Q8VC69 1-545): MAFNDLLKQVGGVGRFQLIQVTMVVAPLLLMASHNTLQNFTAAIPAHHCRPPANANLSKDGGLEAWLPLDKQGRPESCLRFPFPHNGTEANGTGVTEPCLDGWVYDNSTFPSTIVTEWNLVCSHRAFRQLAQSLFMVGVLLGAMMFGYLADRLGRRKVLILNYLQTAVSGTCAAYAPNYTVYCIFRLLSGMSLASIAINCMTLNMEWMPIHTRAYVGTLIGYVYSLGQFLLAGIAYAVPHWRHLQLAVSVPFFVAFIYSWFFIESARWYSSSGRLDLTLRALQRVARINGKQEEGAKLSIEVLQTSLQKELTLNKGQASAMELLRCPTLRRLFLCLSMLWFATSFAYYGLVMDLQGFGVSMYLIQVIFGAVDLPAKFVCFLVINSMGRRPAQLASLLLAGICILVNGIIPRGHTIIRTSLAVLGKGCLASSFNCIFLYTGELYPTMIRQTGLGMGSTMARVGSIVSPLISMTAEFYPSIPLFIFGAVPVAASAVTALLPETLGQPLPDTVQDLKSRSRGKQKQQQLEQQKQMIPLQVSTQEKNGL
Experiment: inhibition of 6-carboxyfluorescein uptake, Xenopus oocytes
Assay type: cell-based

| IC50 [µM] | IC50 (30 μM 6-carboxyfluorescein tracer, 1 h incubation) [µM] | SMILES |
| --- | --- | --- |
| 50 |  | O=C(O)c1cc(O)c2cccc(O)c2n1 [xanthurenic acid] |
| 12 |  | Nc1ccccc1C(=O)C[C@H](N)C(=O)O [kynurenine] |
|  | 22 | O=c1c2ncccc2[nH]c2c([N+](=O)[O-])c(O)c([N+](=O)[O-])c(O)c12 [CAS 5435-73-4] |
